Reference: paper PMC9694494, “Resveratrol/Hydrazone Hybrids: Synthesis and Chemopreventive Activity against Colorectal Cancer Cells” (Pharmaceutics, 2022)

Legend:
Format in all cases: cell-based, human
SW620 cells [1] = experiment: Cell death induction (Annexin-V/FITC and PI flow cytometry), SW620; details: SW620, 48 h exposure
Method: (§1) Flow cytometric analysis using a double fluorescent staining with Annexin-V/FITC and propidium iodide (Roche Diagnostics) was used to evaluate phosphatidylserine exposure and membrane damage. Colon cancer cells (SW480 and SW620) were seeded at 2.5 × 10^5 in each 6-well plate and treated for 48 h. […] At the end of each treatment, cells were scraped and centrifuged. The pellet was resuspended in versene buffer with the fluorescent dyes and incubated for 20 min in darkness. Data were analyzed with FlowJo 7.6.2 (Ashland, OR, USA). Cells with double-positive staining for Annexin-V and PI were considered late apoptotic or dead cells, while the single staining with Annexin-V/FITC (Annexin-V/FITC positive) or propidium iodide (PI positive) was considered for early apoptotic or necrotic cells, respectively. Assays were performed twice.

SW620 cells [2] = experiment: Cell cycle analysis (PI flow cytometry), SW620; details: SW620, 48 h treatment
Method: (§2) Cell staining with the fluorescent propidium iodide (PI) was used to measure cell cycle distribution. The assays were carried out following the previous methodology described by Nicoletti et al. (1991). Briefly, 2.5 × 10^5 cells/well were seeded in 6-well tissue culture plates at 37 °C and 5% CO2. After 24 h of adherence, cells were treated during 48 h with hybrids 6e and 7, together with the vehicle control. At the end of each treatment, cells were scraped, and the centrifuged pellet was resuspended in 1.8 mL of 70% ethanol at 4 °C to fix the cells overnight. Then, after centrifugation, cells were washed twice in versene buffer to completely remove the alcohol, besides, they were further resuspended in 300 µL of PBS containing 0.25 mg/mL RNAse (Type I-A, Sigma-Aldrich, Darmstadt, Germany) and 0.1 mg/mL PI. After the incubation in the dark (for 30 min at room temperature), 10,000 events were analyzed with a FACS Canto II flow cytometer and the software BD FACS Diva 6.1.3. (BD Biosciences, San Jose, CA, USA). The PI fluorescence signal was analyzed with excitation at 488 nm (using a Sapphire laser), and detection at 610 nm. The cell cycle model was fixed with FlowJo 7.6.2 (Ashland, OR, USA), applying the Dean-Jett-Fox model.

SW480 cells [3] = experiment: Cell death induction (Annexin-V/FITC and PI flow cytometry), SW480; details: SW480, 48 h exposure
Method: as §1

SW480 cells [4] = experiment: Cell cycle analysis (PI flow cytometry), SW480; details: SW480, 48 h treatment
Method: as §2

Compound | plasma membrane integrity (PI positive staining) (SW620 cells [1]) | Cell cycle distribution Sub G0/G1 (SW620 cells [2]) | plasma membrane integrity (PI positive staining) (SW480 cells [3]) | Cell cycle distribution G0/G1 (SW480 cells [4]) | Cell cycle distribution G2/M (SW480 cells [4])
O=C(N/N=C/c1c(O)cc(O)cc1/C=C/c1ccc(O)cc1)c1ccncc1 [compound 7, N′-((E)-2,4-dihydroxy-6-((E)-4-hydroxystyryl)benzylidene)isonicotinohydrazide] | induced plasma membrane disintegration | 20.60% | induced plasma membrane disintegration |  | 
COc1ccc(C(=O)N/N=C/c2c(O)cc(O)cc2/C=C/c2ccc(O)cc2)c(OC)c1 [6e, N′-((E)-2,4-dihydroxy-6-((E)-4-hydroxystyryl)benzylidene)-2,4-dimethoxybenzohydrazide] |  |  |  | 58.95% | 21.31%
